Data: the NIST ThermoML archive (doi:10.1016/j.jct.2008.12.010)

Key:
[1] = for speed of sound / mass density: 101.33 kPa, Liquid; for speed of sound: Linear variable-path acoustic interferometer; for mass density: Vibrating tube method; for surface tension liquid-gas: Drop volume
[2] = xn = mol fraction of the nth substance listed; settings: for surface tension liquid-gas: 298.15 K, Drop volume; for speed of sound / mass density: 303.15 K, Liquid; for speed of sound: Linear variable-path acoustic interferometer; for mass density: Vibrating tube method

Cc1ccc(C)cc1 [1,4-dimethylbenzene]
[1]
Settings | mass density [kg/m3] | speed of sound [m/s] | surface tension liquid-gas [mN/m]
288.15 K | 865.2 | 1350.7 | –
293.15 K | 860.9 | 1329.6 | –
298.15 K | 856.58 | 1308.4 | 27.43
303.15 K | 852.21 | 1287.4 | –
308.15 K | 847.83 | 1266.4 | –

CCOC(=O)OCC [diethyl carbonate]
[1]
Settings | mass density [kg/m3] | speed of sound [m/s] | surface tension liquid-gas [mN/m]
288.15 K | 980.4 | 1218 | –
293.15 K | 974.81 | 1197.7 | –
298.15 K | 969.19 | 1176.9 | 25.43
303.15 K | 963.6 | 1156.3 | –
308.15 K | 957.92 | 1135.8 | –

CCCCCCCCCC [decane]
[1]
Settings | mass density [kg/m3] | speed of sound [m/s] | surface tension liquid-gas [mN/m]
288.15 K | 733.62 | 1274.4 | –
293.15 K | 729.86 | 1254.8 | –
298.15 K | 726.09 | 1234.7 | 23.1
303.15 K | 722.3 | 1214.7 | –
308.15 K | 718.51 | 1194.9 | –

CCOC(=O)OCC [diethyl carbonate] + CCCCCCCCCC
[2]
Settings | mass density [kg/m3] | speed of sound [m/s] | surface tension liquid-gas [mN/m]
x1 = 0.0495 | 729.09 | 1207.8 | –
x1 = 0.04972 | – | – | 22.98
x1 = 0.09861 | 736.12 | 1201.1 | –
x1 = 0.09958 | – | – | 22.89
x1 = 0.1979 | 751.5 | 1188.8 | –
x1 = 0.1989 | – | – | 22.86
x1 = 0.2966 | – | – | 22.84
x1 = 0.3012 | 769.28 | 1177.8 | –
x1 = 0.3959 | – | – | 22.89
x1 = 0.3995 | 788 | 1168.5 | –
x1 = 0.504 | 810.31 | 1160.2 | –
x1 = 0.5144 | – | – | 22.97
x1 = 0.5477 | 820.39 | 1157.2 | –
x1 = 0.5568 | – | – | 22.98
x1 = 0.5996 | – | – | 23.04
x1 = 0.6015 | 833.53 | 1153.9 | –
x1 = 0.699 | 859.54 | 1149.6 | –
x1 = 0.7 | – | – | 23.24
x1 = 0.7887 | – | – | 23.58
x1 = 0.799 | 889.41 | 1147.7 | –
x1 = 0.8986 | – | – | 24.27
x1 = 0.9002 | 924.32 | 1149.1 | –
x1 = 0.95 | 943.19 | 1151.4 | –
x1 = 0.9516 | – | – | 24.76
